Reference: article PMC11729640, “Synthesis and evaluation of 6-arylaminobenzamides as positron emission tomography imaging ligands for the sphingosine-1-phosphate-5 receptor” (RSC Medicinal Chemistry, 2025)

Tests used:
S1P5 = biological target: T1, S1P5 (Homo sapiens, UniProt Q9H228); assay: [35S]GTPγS binding assay, agonist activity at S1P5; format: biochemical; conditions: for EC50: n = 3, errors in parentheses derived from 95% confidence intervals, nine concentrations 100 fM to 10 μM; for Efficacy (%): relative efficacy versus S1P against S1P5, single high concentration, single 96-well plate
T1 construct: purchased Eurofins
T1 sequence (Q9H228 whole entry): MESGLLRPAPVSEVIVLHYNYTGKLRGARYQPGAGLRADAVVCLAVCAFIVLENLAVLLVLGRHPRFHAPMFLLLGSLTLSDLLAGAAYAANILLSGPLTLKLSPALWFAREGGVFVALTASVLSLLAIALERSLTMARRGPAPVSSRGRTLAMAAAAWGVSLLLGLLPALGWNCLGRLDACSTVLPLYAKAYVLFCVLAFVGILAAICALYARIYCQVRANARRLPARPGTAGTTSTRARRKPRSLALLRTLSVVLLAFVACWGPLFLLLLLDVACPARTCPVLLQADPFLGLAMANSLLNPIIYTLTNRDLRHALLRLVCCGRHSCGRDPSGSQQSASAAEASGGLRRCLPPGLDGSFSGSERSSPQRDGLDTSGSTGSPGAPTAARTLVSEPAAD
Description: The membrane preparation was diluted to […] with assay buffer and mixed 1 : 1 (v/v) with a 0.4 mg mL^-1 solution of saponin in assay buffer. […] MerckTM Multiscreen® HTS 96 well filter plates were pre-wet with 70% aqueous EtOH (50 μL per well) for 30 seconds and then washed twice with assay buffer (200 μL per well). […]

[1] = biological target: human serum albumin (HSA) (Homo sapiens, UniProt P02768); assay: Plasma protein binding by human serum albumin (HSA) coated column; format: in vitro ADME; conditions: read-out: %PPB (percentage of plasma protein binding)
Chain of human serum albumin (HSA) (P02768 25-609): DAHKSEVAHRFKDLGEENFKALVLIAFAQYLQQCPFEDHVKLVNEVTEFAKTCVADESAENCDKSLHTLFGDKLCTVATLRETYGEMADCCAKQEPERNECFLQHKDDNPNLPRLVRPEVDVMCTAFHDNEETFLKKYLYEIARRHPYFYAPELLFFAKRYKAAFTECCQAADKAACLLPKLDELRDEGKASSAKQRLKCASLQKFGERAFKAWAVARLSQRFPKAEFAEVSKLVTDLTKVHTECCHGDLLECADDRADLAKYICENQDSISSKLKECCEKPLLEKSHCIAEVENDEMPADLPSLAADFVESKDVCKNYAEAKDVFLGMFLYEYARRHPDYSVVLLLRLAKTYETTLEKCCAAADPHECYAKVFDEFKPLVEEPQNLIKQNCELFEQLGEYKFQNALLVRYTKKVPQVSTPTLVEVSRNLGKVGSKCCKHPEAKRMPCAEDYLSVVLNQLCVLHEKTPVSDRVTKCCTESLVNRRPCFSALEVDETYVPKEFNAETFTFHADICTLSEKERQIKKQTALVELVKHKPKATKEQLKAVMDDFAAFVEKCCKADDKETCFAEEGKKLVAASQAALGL
Description: The physicochemical properties of both sets of compounds was initially performed to assess their potential as brain imaging agents. The calculated partition coefficient (log P), the permeability (Pm), the membrane partition coefficient (Km) and the percentage of plasma protein binding (%PPB) were determined for each compound using established methods (see ESI, ^† Table S1).[22,23] […] The permeability and membrane partition coefficient for the majority of compounds were well within the ideal limits for these parameters (Pm < 0.5; Km < 250), which are based on known CNS imaging agents.[23]
1. Physiochemical Propert ies of 6-arylaminobenz amides 7a–7h and 8a–8e.1
Compound log Pa Pmb Kmb %PPBc
aCalcul ated using Ch emDraw. bDeterm ined using i mmobil ised art ific ial membr ane (IAM) column .
cDetermin ed using human seru m albu min (HSA) coa ted colu mn.

S1P3 = biological target: T2, S1P3 (Homo sapiens, UniProt Q99500); assay: [35S]GTPγS binding assay, agonist activity at S1P3; format: biochemical; conditions: n = 3, errors in parentheses derived from 95% confidence intervals
T2 construct: purchased Eurofins
T2 sequence (Q99500 whole entry): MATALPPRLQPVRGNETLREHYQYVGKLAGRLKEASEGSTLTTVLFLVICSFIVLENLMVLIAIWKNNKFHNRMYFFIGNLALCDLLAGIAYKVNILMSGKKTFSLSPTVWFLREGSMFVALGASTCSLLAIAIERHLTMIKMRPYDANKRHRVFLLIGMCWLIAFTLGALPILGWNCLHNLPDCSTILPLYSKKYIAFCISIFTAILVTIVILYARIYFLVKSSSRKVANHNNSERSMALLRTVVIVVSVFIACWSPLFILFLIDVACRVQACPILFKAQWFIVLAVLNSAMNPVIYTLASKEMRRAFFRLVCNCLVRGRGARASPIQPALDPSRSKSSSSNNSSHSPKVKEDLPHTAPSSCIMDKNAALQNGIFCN
Description: (§1) A GTPγS assay was then conducted to evaluate receptor agonist activity of each compound at nine concentrations from 100 fM to 10 μM (n = 3).[24,25] Initially, all compounds were tested for agonist activity with S1P5 and relative efficacy versus S1P (Table 1).[26] […] Previous work by the Novartis group described the importance of hydrogen bonding between the carboxamide and 2-substituent, to maintain an in-plane conformation of the amide that was critical for agonist activity against S1P receptors.[16] […] This was more pronounced for compounds with both a bulky alkoxy group and a 3-substituent, with 6-arylaminobenzamide 7h found to have the weakest activity. […] Based on the binding studies and the physicochemical results, 6-arylaminobenzamide 7g, named as TEFM78 was chosen as the lead compound.
(§2) The assay buffer was prepared from HEPES (20 mM), NaCl (100 mM), MgCl2 (10 mM) and fatty acid-free BSA (0.1%) at pH 7.4. ChemiScreen™ S1P1–3,5 lysophospholipid receptor membrane preparations were obtained from Eurofins. The membrane preparation was diluted to […] with assay buffer and mixed 1 : 1 (v/v) with a 0.4 mg mL^−1 solution of saponin in assay buffer. Nine concentrations of the compounds to be tested were prepared (10 μM, 1 μM, 100 nM, 10 nM, 1 nM, 100 pM, 10 pM, 1 pM, 100 fM). Merck™ Multiscreen® HTS 96 well filter plates were pre-wet with 70% aqueous EtOH (50 μL per well) for 30 seconds and then washed twice with assay buffer (200 μL per well). To each well was added membrane preparation (25 μL), GDP in assay buffer (25 μL, 2 μM), [^35S]GTPγS in assay buffer (25 μL, 1.2 nM) and test compound (25 μL). For total binding, S1P solution in assay buffer (25 μL, 10 μM) was added and for basal, assay buffer (25 μL) was added. The assay plate was incubated at 30 °C for 0.5 h before the addition of cold assay buffer (100 μL per well) to stop the reaction. The plate was filtered using a Millipore vacuum manifold, with a pressure between 600–800 mbar and then dried at 50 °C for 1–2 h. Betaplate Scint scintillation cocktail (30 μL per well) was added and the disintegrations per minute were determined using a Wallac 1450 Microbeta Trilux liquid scintillation and luminescence counter. EC50 values were derived from non-linear regression analysis using GraphPad Prism Version 6 (GraphPad Software Inc).

S1P1 = biological target: T3, S1P1 (Homo sapiens, UniProt P21453); assay: [35S]GTPγS binding assay, agonist activity at S1P1; format: biochemical; conditions: n = 3, errors in parentheses derived from 95% confidence intervals
T3 construct: purchased Eurofins
T3 sequence (P21453 whole entry): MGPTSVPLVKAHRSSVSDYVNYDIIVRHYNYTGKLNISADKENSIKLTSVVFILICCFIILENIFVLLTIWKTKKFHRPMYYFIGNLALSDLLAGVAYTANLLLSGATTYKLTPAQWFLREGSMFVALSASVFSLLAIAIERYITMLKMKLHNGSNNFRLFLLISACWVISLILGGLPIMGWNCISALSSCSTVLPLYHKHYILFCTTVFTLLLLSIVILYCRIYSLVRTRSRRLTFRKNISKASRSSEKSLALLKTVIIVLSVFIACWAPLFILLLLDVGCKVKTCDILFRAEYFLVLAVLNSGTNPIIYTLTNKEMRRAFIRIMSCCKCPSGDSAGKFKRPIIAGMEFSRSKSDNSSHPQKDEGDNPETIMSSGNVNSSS
Description: as §1, §2

S1P2 = biological target: T4, S1P2 (Homo sapiens, UniProt O95136); assay: [35S]GTPγS binding assay, agonist activity at S1P2; format: biochemical; conditions: n = 3, errors in parentheses derived from 95% confidence intervals
T4 construct: purchased Eurofins
T4 sequence (O95136 whole entry): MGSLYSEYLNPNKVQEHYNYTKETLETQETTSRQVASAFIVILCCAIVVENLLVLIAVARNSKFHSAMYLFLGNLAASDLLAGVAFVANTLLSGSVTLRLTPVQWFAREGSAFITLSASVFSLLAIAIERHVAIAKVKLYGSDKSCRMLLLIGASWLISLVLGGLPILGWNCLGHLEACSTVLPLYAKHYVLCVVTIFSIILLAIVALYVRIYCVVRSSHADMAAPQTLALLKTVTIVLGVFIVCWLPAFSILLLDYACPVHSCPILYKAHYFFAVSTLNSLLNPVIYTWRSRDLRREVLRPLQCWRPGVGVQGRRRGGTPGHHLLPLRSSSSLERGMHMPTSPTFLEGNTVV
Description: as §1, §2

| EC50 (S1P5) | Efficacy (%) (S1P5) | fraction unbound [1] | EC50 (S1P3) | EC50 (S1P1) | EC50 (S1P2) | SMILES |
| --- | --- | --- | --- | --- | --- | --- |
| 419 nM | 105% | 0.01 |  |  |  | Cc1cc(F)cc(C)c1Nc1cccc(OC(C)C)c1C(N)=O [Compound 7a, 6-[(4′-Fluoro-2′,6′-dimethylphenyl)amino]-2-isopropoxybenzamide] |
| 39.8 nM | 108% | 0.01 | > 10000 nM | > 10000 nM | > 10000 nM | COc1cccc(Nc2c(C)cc(F)cc2C)c1C(N)=O [Compound 7b, 6-[(4′-Fluoro-2′,6′-dimethylphenyl)amino]-2-methoxybenzamide] |
| 6.66 nM | 164% |  | 27.6 nM | 25.6 nM | > 10000 nM | C=CCOc1cccc(Nc2c(C)cc(F)cc2C)c1C(N)=O [Compound 7f, 2-(Allyloxy)-6-[(4′-fluoro-2′,6′-dimethylphenyl)amino]benzamide] |
| 22.3 nM | 183% | 0.01 | 2030 nM | 104 nM | > 10000 nM | COc1c(C)ccc(Nc2c(C)cc(F)cc2C)c1C(N)=O [Compound 7g, 6-[(4′-Fluoro-2′,6′-dimethylphenyl)amino]-2-methoxy-3-methylbenzamide] |
| 72.3 nM | 129% |  |  |  |  | COc1c(-c2ccc(F)cc2)ccc(Nc2c(C)cc(C)cc2C)c1C(N)=O [Compound 8a, 3-(4′′-Fluorophenyl)-6-(mesitylamino)-2-methoxybenzamide] |
| 954 nM | 136% |  |  |  |  | COc1c(-c2ccccc2F)ccc(Nc2c(C)cc(C)cc2C)c1C(N)=O [Compound 8b, 3-(2′′-Fluorophenyl)-6-(mesitylamino)-2-methoxybenzamide] |
| 29.8 nM | 120% |  | > 10000 nM | 76 nM | > 10000 nM | COc1ccc(-c2ccc(Nc3c(C)cc(C)cc3C)c(C(N)=O)c2OC)c(F)c1 [Compound 8c, 3-(2′′-Fluoro-4′′-methoxyphenyl)-6-(mesitylamino)-2-methoxybenzamide] |
| 612 nM | 142% |  |  |  |  | COc1ccc(F)c(-c2ccc(Nc3c(C)cc(C)cc3C)c(C(N)=O)c2OC)c1 [Compound 8d, 3-(2′′-Fluoro-5′′-methoxyphenyl)-6-(mesitylamino)-2-methoxybenzamide] |
| 23.4 nM | 175% | 0.01 | 172 nM | 0.336 nM | > 10000 nM | COc1c(-c2cccnc2F)ccc(Nc2c(C)cc(C)cc2C)c1C(N)=O [Compound 8e, 3-(2′′-Fluoropyridin-3′′-yl)-6-(mesitylamino)-2-methoxybenzamide] |
|  | 100% |  | 42.6 nM |  |  | CCCCCCCCCCCCC/C=C/[C@@H](O)[C@@H](N)COP(=O)(O)O [S1P (1), sphingosine-1-phosphate] |

| SMILES | EC50 (S1P5) | Efficacy (%) (S1P5) | fraction unbound [1] | EC50 (S1P3) | EC50 (S1P1) | EC50 (S1P2) |
| --- | --- | --- | --- | --- | --- | --- |
| Cc1cc(F)cc(C)c1Nc1cccc(OCC(C)C)c1C(N)=O [Compound 7c, 6-[(4′-Fluoro-2′,6′-dimethylphenyl)amino]-2-isobutoxybenzamide] | 180 nM | 137% |  |  |  |  |
| CCCCOc1cccc(Nc2c(C)cc(F)cc2C)c1C(N)=O [Compound 7d, 2-n-Butoxy-6-[(4′-fluoro-2′,6′-dimethylphenyl)amino]benzamide] | 234 nM | 140% |  |  |  |  |
| Cc1cc(F)cc(C)c1Nc1cccc(OCCC(C)C)c1C(N)=O [Compound 7e, 6-[(4′-Fluoro-2′,6′-dimethylphenyl)amino]-2-(3′′-methyl-n-butoxy)benzamide] | 49 nM | 102% |  |  |  |  |
| Cc1cc(F)cc(C)c1Nc1ccc(C)c(OCC(C)C)c1C(N)=O [Compound 7h, 6-[(4′-Fluoro-2′,6′-dimethylphenyl)amino]-2-isobutoxy-3-methylbenzamide] | 2240 nM | 154% |  |  |  |  |
